Assay results reported in patent US5187166A, “Azabicyclo derivatives and their use as antiemetics” (Nisshin Flour Milling Co., Ltd., priority 1990, dated 1993).

Test system: 5-HT3 receptors
Experiment: antagonism of the von Bezold-Jarisch reflex (bradycardia) induced by 5-HT in the anaesthetised rat
Type: in vivo
Details: i.v., hydrochloride salt, 5 min before 5-HT 30 μg/kg, urethane-anaesthetised rats
Description: Temporary bradycardia is induced by administration of 5-HT (serotonin) to anaesthetised rats via jugular vein (von Bezold Jarisch Reflex) (A. S. Paintal, Physiol. Rev., 53, 159-210 (1973)).
The compounds of the present invention were evaluated for antagonism of the von Bezold-Jarisch reflex induced by 5-HT in the anaesthetised rat according to the following method.
Rats were anaesthetised with urethane (1 g/kg, intraperitoneally) and blood pressure and heart rate recorded from left femoral artery. Percent inhibition was calculated from bradycardia induced by 5-HT (30 μg/kg) given 5 minutes following intrajugular administration of a compound of the invention, taking the bradycardia induced by the intrajugular administration of 5-HT. The compounds of the present invention were tested in the form of their hydrochloride salts.

| SMILES | Percent Inhibition (0.1 μg/kg) | Percent Inhibition (1.0 μg/kg) | Percent Inhibition (10 μg/kg) |
| --- | --- | --- | --- |
| CC(C)n1nc(C(=O)N[C@@H]2C[C@@H]3CN(C)C[C@H](C2)N3C)c2ccccc21 [Example 16, Endo-3,9-dimethyl-3,9-diazabicyclo[3.3.1]non-7-yl 1-(2-propyl)indazole-3-carboxamide] | 59% |  |  |
| CN1[C@@H]2COC[C@H]1C[C@@H](OC(=O)c1nn(C)c3ccccc13)C2 [Example 4, (Endo-9-methyl-3-oxa-9-azabicyclo[3.3.1]non-7-yl) 1-methylindazole-3-carboxylate] | 59% | 80% |  |
| CN1C[C@H]2C[C@@H](NC(=O)c3c[nH]c4ccccc34)C[C@@H](C1)N2C [Example 11, Endo-3,9-dimethyl-3,9-diazabicyclo[3.3.1]non-7-yl 1H-indole-3-carboxamide] |  | 39% | 79% |
| CN1C[C@H]2C[C@@H](NC(=O)c3nn(C)c4ccccc34)C[C@@H](C1)N2C [Example 12, Endo-3,9-dimethyl-3,9-diazabicyclo[3.3.1]non-7-yl 1-methylindazole-3-carboxamide] | 25% | 71% |  |
| CN1C[C@H]2C[C@@H](NC(=O)c3nn(Cc4ccccc4)c4ccccc34)C[C@@H](C1)N2C [Example 17, Endo-3,9-dimethyl-3,9-diazabicyclo[3.3.1]non-7-yl 1-benzylindazole-3-carboxamide] | 43% | 91% |  |
| CCn1nc(C(=O)N[C@@H]2C[C@@H]3CN(C)C[C@H](C2)N3C)c2ccccc21 [Example 15, Endo-3,9-dimethyl-3,9-diazabicyclo[3.3.1]non-7-yl 1-ethylindazole-3-carboxamide] | 42% | 91% |  |
| CCCCCCCCn1nc(C(=O)N[C@@H]2C[C@@H]3CN(C)C[C@H](C2)N3C)c2ccccc21 [Example 18, Endo-3,9-dimethyl-3,9-diazabicyclo[3.3.1]non-7-yl 1-(n-octyl)indazole-3-carboxamide] |  | 15% |  |
| CN1[C@@H]2CSC[C@H]1C[C@@H](OC(=O)c1nn(C)c3ccccc13)C2 [Example 3, (Endo-9-methyl-3-thia-9-azabicyclo[3.3.1]non-7-yl) 1-methylindazole-3-carboxylate] | 43% | 67% |  |
| CN1[C@@H]2COC[C@H]1C[C@@H](NC(=O)c1c[nH]c3ccccc13)C2 [Example 7, Endo-9-methyl-3-oxa-9-azabicyclo[3.3.1]non-7-yl 1H-indole-3-carboxamide] |  | 36% | 72% |
| COc1cc(N)c(Cl)cc1C(=O)O[C@H]1C[C@H]2CSC[C@@H](C1)N2C [Example 5, (Endo-9-methyl-3-thia-9-azabicyclo[3.3.1]non-7-yl) 4-amino-5-chloro-2-methoxy benzoate] |  |  | 58% |
| CN1[C@@H]2CSC[C@H]1C[C@@H](OC(=O)c1c[nH]c3ccccc13)C2 [Example 1, (Endo-9-methyl-3-thia-9-azabicyclo[3.3.1]non-7-yl) 1H-indole-3-carboxylate] | 51% | 85% |  |
| COc1cc(N)c(Cl)cc1C(=O)N[C@@H]1C[C@@H]2CN(C)C[C@H](C1)N2C [Example 22, Endo-3,9-dimethyl-3,9-diazabicyclo[3.3.1]non-7-yl 4-amino-5-chloro-2-methoxyphenylcarboxyamide] |  | 43% | 89% |
| CN1C[C@H]2C[C@@H](NC(=O)c3n[nH]c4ccccc34)C[C@@H](C1)N2C [Example 13] |  | 28% | 95% |
| CN(C)CCn1nc(C(=O)N[C@@H]2C[C@@H]3CN(C)C[C@H](C2)N3C)c2ccccc21 [Example 19, Endo-3,9-dimethyl-3,9-diazabicyclo[3.3.1]non-7-yl 1-[2-(dimethylamino)ethyl]indazole-3-carboxamide] |  | 10% |  |
| CN1C[C@H]2C[C@@H](OC(=O)c3c[nH]c4ccccc34)C[C@@H](C1)N2C [Example 9, (Endo-3,9-dimethyl-3,9-diazabicyclo[3.3.1]non-7-yl) 1H-indole-3-carboxylate] | 28% | 58% | 91% |
| CN1[C@@H]2COC[C@H]1C[C@@H](OC(=O)c1c[nH]c3ccccc13)C2 [Example 2, (Endo-9-methyl-3-oxa-9-azabicyclo[3.3.1]non-7-yl) 1H-indole-3-carboxylate] | 54% | 93% |  |
